Assay results published in the supplement of paper PMC5908809.

Assays:
[1] = system: NK-YS (IL-2 2.5 ng/mL); assay: drug sensitivity score (DSS) (DSS units); higher = more sensitive; extreme values may be limits of the assay; details: 72 h
[2] = system: SNK-6 (IL-2 2.5 ng/mL); assay: as above; details: 72 h
[3] = system: NK-92 (IL-2 2.5 ng/mL); assay: as above; details: 72 h
[4] = system: NKL (IL-2 2.5 ng/mL); assay: as above; details: 72 h
[5] = system: DERL-7 (IL-2 2.5 ng/mL); assay: as above; details: 72 h
[6] = system: IMC-1 (IL-2 20 ng/mL); assay: as above; details: 72 h
[7] = system: normal primary NK cells, pool 3 (3 donors) (IL-2 2.5 ng/mL); assay: as above; details: 72 h
[8] = system: KAI3 (IL-2 2.5 ng/mL); assay: as above; details: 72 h
[9] = system: normal primary NK cells, pool 1 (3 donors), resting (IL-2 0 ng/mL); assay: as above; details: 72 h
[10] = system: normal primary NK cells, pool 2 (3 donors) (IL-2 2.5 ng/mL); assay: as above; details: 72 h
[11] = system: normal primary NK cells, pool 1 (3 donors) (IL-2 2.5 ng/mL); assay: as above; details: 72 h
[12] = system: KHYG-1 (IL-2 2.5 ng/mL); assay: as above; details: 72 h
[13] = system: YT (IL-2 2.5 ng/mL); assay: as above; details: 72 h
[14] = system: normal NK cells expanded with K562-aAPC; assay: as above; details: 72 h; IL-2 2.5 ng/mL
Experimental: (§1)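 Drug sensitivity and resistance testing on K562-aAPC-expanded normal NK cells: 5 concentrations (10-fold steps over a 10,000-fold range), 72 h at 37 °C, viability by CellTiter-Glo normalised to DMSO and benzethonium chloride controls; DSS from the fitted curve.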

[15] = system: normal NK cells expanded with K562-aAPC; assay: percent inhibition of viability; higher = more inhibition; details: 72 h, IL-2 2.5 ng/mL
Experimental: as §1

[16] = system: NK-YS (IL-2 2.5 ng/mL); assay: as above; details: 72 h
[17] = system: SNK-6 (IL-2 2.5 ng/mL); assay: as above; details: 72 h
[18] = system: NK-92 (IL-2 2.5 ng/mL); assay: as above; details: 72 h
[19] = system: NKL (IL-2 2.5 ng/mL); assay: as above; details: 72 h
[20] = system: DERL-7 (IL-2 2.5 ng/mL); assay: as above; details: 72 h
[21] = system: IMC-1 (IL-2 20 ng/mL); assay: as above; details: 72 h
[22] = system: normal primary NK cells, pool 3 (3 donors) (IL-2 2.5 ng/mL); assay: as above; details: 72 h
[23] = system: KAI3 (IL-2 2.5 ng/mL); assay: as above; details: 72 h
[24] = system: normal primary NK cells, pool 1 (3 donors), resting (IL-2 0 ng/mL); assay: as above; details: 72 h
[25] = system: normal primary NK cells, pool 2 (3 donors) (IL-2 2.5 ng/mL); assay: as above; details: 72 h
[26] = system: normal primary NK cells, pool 1 (3 donors) (IL-2 2.5 ng/mL); assay: as above; details: 72 h
[27] = system: KHYG-1 (IL-2 2.5 ng/mL); assay: as above; details: 72 h
[28] = system: YT (IL-2 2.5 ng/mL); assay: as above; details: 72 h

COc1ccc(-c2cc3c(C)nc(N)nc3n([C@H]3CC[C@H](OCCO)CC3)c2=O)cn1 (max concentration tested 10000 nM)
Details	drug sensitivity score
[1]	14.1
[2]	7.29
[3]	22.4
[4]	16.6
[5]	27.6
[6]	2.72
[7]	8.86
[8]	16.5
[9]	14.5
[10]	11
[11]	11.4
[12]	15
[13]	19.1
[14]	11.5

percent inhibition of viability [%]
Details	1 nM	10 nM	100 nM	1000 nM	10000 nM
[15]	-6.01	3.97	27.8	42.7	60.2
[16]	1.08	-1.02	20.1	62.4	85
[17]	-16.2	-10.9	2.3	30.8	65.3
[18]	16.6	20.7	49.1	75.7	97.2
[19]	-11.1	4.69	32.7	66.2	93.9
[20]	2.23	21.8	69.6	92	99.9
[21]	-2.45	-13.7	-14.2	-15.4	64.2
[22]	5.05	8.38	19.9	31.5	96.7
[23]	1.74	8.43	34.4	63.8	82.1
[24]	19.4	14.7	33.7	39	98.8
[25]	-0.57	7.93	21.5	39.9	96.6
[26]	-2.26	7.17	28.9	35.8	99.4
[27]	2.41	2.54	15.7	68.3	103
[28]	8.27	10.8	38.5	76.5	86.5

Cc1c(Cn2c(C)nc3c(C(=O)O)cc(N4CCOCC4)cc32)cccc1C(F)(F)F (max concentration tested 10000 nM)
Details	drug sensitivity score
[1]	0.34
[2]	0.03
[3]	3.86
[4]	0.29
[5]	0.85
[6]	0
[7]	0.01
[8]	3.6
[9]	0
[10]	0.23
[11]	0
[12]	3.2
[13]	1.67
[14]	1.17

percent inhibition of viability [%]
Details	1 nM	10 nM	100 nM	1000 nM	10000 nM
[15]	2.47	-0.33	2.82	11.7	17.4
[16]	-2.91	-0.33	7.31	5.6	15.8
[17]	-7.05	-21.9	3.71	-6.21	13.1
[18]	-7.97	-2.84	22	7.51	49
[19]	-15.7	-8.49	-1.03	1.51	14.1
[20]	3.53	-4.49	1.36	12.1	13.4
[21]	-6.71	-4.25	-1.73	-3.09	11.3
[22]	-1.55	0.84	4.49	-0.45	11.4
[23]	8.08	9.48	9.01	12.5	37.9
[24]	-5.25	4.41	3.22	-19.1	-11.9
[25]	-11.1	-13.9	-1.99	1.31	13.6
[26]	-6.21	1.65	-5.56	-4.02	4.77
[27]	-2.27	6.11	14.1	8.86	38.2
[28]	1	6.27	9.12	14.3	16.5

Nc1ncnc2c1c(COc1cccc(Cl)c1)nn2C1CCOCC1 (max concentration tested 10000 nM)
Details	drug sensitivity score
[1]	0
[2]	0
[3]	1.45
[4]	1.92
[5]	1.44
[6]	0
[7]	0.39
[8]	0
[9]	0.06
[10]	0.39
[11]	0.03
[12]	0
[13]	2.23
[14]	0.66

percent inhibition of viability [%]
Details	1 nM	10 nM	100 nM	1000 nM	10000 nM
[15]	-1.33	-1.38	-0.63	3.72	15.8
[16]	-2.03	-5.09	-3.81	-2.25	1.95
[17]	11.9	13.8	-0.97	16.6	15
[18]	5.04	-5.45	2.8	11.6	20.2
[19]	2.65	1.05	6.33	7.05	28
[20]	-1.45	-6.37	0.64	4.1	23.4
[21]	-0.63	-0.09	1.3	2.67	5.66
[22]	-12.8	-14.6	-0.61	5.01	13
[23]	-4.22	-5.6	-4.5	-2.39	10.8
[24]	-7.87	-6	-17.2	5.79	10.6
[25]	-11.2	-9.94	-1.24	-2.49	18.9
[26]	-5.02	-2.71	-7	-1.66	12.2
[27]	3.82	3.26	2.76	9.04	2.95
[28]	5.62	8.61	4.5	8.08	29.8

CON(C)C(=O)N1N=C(c2cc(F)ccc2F)S[C@@]1(CCCN)c1ccccc1 [ARRY-520] (max concentration tested 1000 nM)
Details	drug sensitivity score
[1]	23.1
[2]	27.8
[3]	22.4
[4]	26
[5]	30.5
[8]	14.6
[9]	0
[11]	0
[12]	30.3
[13]	13.2

percent inhibition of viability [%]
Details	[16]	[17]	[18]	[19]	[20]	[23]	[24]	[26]	[27]	[28]
0.1 nM	-0.87	21	-13.1	1.77	-10.8	-7.27	-28.7	-14.6	-0.04	1.27
1 nM	0.68	12.7	-13.4	-1.49	1.72	-8.08	-37.1	-9.86	-0.06	1.15
10 nM	71.2	81.8	45.1	78.1	98.7	45.9	-37.4	-12	98.8	7.04
100 nM	77	88	92.3	93.3	100	49.6	-9.59	2.21	107	65.3
1000 nM	76.6	87.7	89.1	87.7	100	49.5	-26.9	-7.49	103	65.7

CCN(c1cc(-c2ccc(CN3CCOCC3)cc2)cc(C(=O)NCc2c(C)cc(C)[nH]c2=O)c1C)C1CCOCC1 [E7438] (max concentration tested 10000 nM)
Details	drug sensitivity score
[1]	0
[2]	0
[3]	3.24
[4]	0
[5]	0
[8]	0
[9]	0
[11]	0
[12]	0
[13]	0

percent inhibition of viability [%]
Details	[16]	[17]	[18]	[19]	[20]	[23]	[24]	[26]	[27]	[28]
1 nM	-4.53	1.4	-6.98	-13.6	7.34	-4.36	6.57	3.3	-5.22	-6.25
10 nM	-0.35	5.22	-6.59	-3.23	4.06	3.43	-0.47	-9.28	-1.93	-2.68
100 nM	5.89	2.14	11.7	3.68	9.96	0.88	9.19	3.33	0.98	0.66
1000 nM	2.91	2.9	12.3	3.36	1.71	-7.37	-13.6	-10.7	0.03	-5.62
10000 nM	11.4	-16.1	18	-3.21	11.7	-7.23	3.73	-1.96	4.04	0.29

CC(C)n1nc(-c2ccc3oc(N)nc3c2)c2c(N)ncnc21 [INK128] (max concentration tested 1000 nM)
Details	drug sensitivity score
[1]	10.7
[2]	10.6
[3]	14.1
[4]	17.1
[5]	19.2
[8]	13.1
[9]	4.47
[11]	7.91
[12]	8.73
[13]	14.1

percent inhibition of viability [%]
Details	[16]	[17]	[18]	[19]	[20]	[23]	[24]	[26]	[27]	[28]
0.1 nM	-11.2	-24	-2.13	0.39	-4.21	-5.24	-19.8	-6.36	-4.72	-1.84
1 nM	-5.11	-3.64	9.63	1.73	-1.17	-1.02	6.92	5.5	1.98	1.95
10 nM	6.74	15.8	22.5	38.8	39.4	24.1	15.4	19.8	3.77	15.8
100 nM	51.9	45.9	60.8	63.9	76.1	54.6	17.9	31.3	33	65.5
1000 nM	71.6	41.9	74.7	70.2	91.4	70.3	34.9	40.5	83.9	78
